Test results as given in patent US20260263459A1, “PHTHALAZINONE GSPT1 PROTEIN DEGRADING AGENT AND USE THEREOF” (CHINA PHARMACEUTICAL UNIVERSITY, priority 2023, published 2026).

What was measured:
GSPT1 protein = target: T1, GSPT1 protein (Homo sapiens, UniProt P15170+Q96SW2); experiment: Degradation of GSPT1 in KG-1 cells (Western blot); format: cell-based; settings: compound concentration 200 nM, 4 h incubation
T1 construct: Whole cell lysates were prepared; endogenous in cells; host or cells: KG-1 cells
Procedure: KG-1 cells were grown in an IMDM culture medium (containing 20% FBS). After centrifugation and counting, the cell concentration was adjusted. The cells were plated onto 6-well plates at 10^6 cells/well, with 1350 μL per well. 150 μL of DMSO and the test compounds of the present disclosure (compound concentration: 200 nM) were added. The plates were incubated in an incubator at 37° C. with 5% CO2 for 4 h. The cells were centrifuged, and the culture medium was discarded. PBS was added to wash the cells and then discarded. Whole cell lysates were prepared using a protease inhibitor cocktail (100×, Fude Biological), a protein phosphatase inhibitor cocktail (100×, Fude Biological), Super Nuclease (Beyotime), and a high-intensity RIPA lysis buffer (Thermo Fisher) and placed on ice for 30 min. After centrifugation, the cell debris precipitates were discarded, and the whole cell lysate supernatants were collected and transferred to new centrifuge tubes. After a BCA protein assay, samples were prepared using a 5× loading buffer (Thermo Fisher). The samples were subjected to protein electrophoresis separation in a 4-20% precast gel (SDS-PAGE gel), transferred to a PVDF membrane, blocked with 5% NFDM/TBST at room temperature for 1 h, incubated overnight with primary antibodies at 4° C., and incubated with a secondary antibody at room temperature for 2 h the next day. Signals were detected using a MINICHEMITM imaging system.
• Anti-GSPT1: Abcam ab234433 • Anti-beta actin: Fude Biological FD0060
• Anti-rabbit peroxidase-linked secondary antibody: Fude Biological FDG007
The degradation effects of the compounds on GSPT1 protein are shown in Table 1, where A represents a GSPT1 protein degradation percentage of no less than 70%, B represents a degradation percentage of less than 70% but no less than 30%, and C represents a degradation percentage of less than 30%.

KG-1 cells = experiment: Antiproliferative activity against KG-1 cells (CCK8); format: cell-based; settings: Homo sapiens, 72 h incubation, CCK8 method
Procedure: KG-1 cells in the logarithmic growth phase were diluted in a culture medium (RPMI+10% FBS) and plated onto 96-well plates at 5000 cells/well, and the plates were incubated in an incubator at 37° C. with 5% CO2 for 24 h. 10 mM stock solutions of the test compounds of the present disclosure in DMSO were prepared and diluted with the culture medium to set 9 concentration gradients. 3 replicate wells were set for each concentration. After compound addition, the plates were incubated in an incubator at 37° C. with 5% CO2 for 72 h. The cell proliferation was assessed using the CCK8 method. The cell growth inhibition IC50 values of the compounds were determined using an enzyme labeling method. The IC50 values were calculated using GraphPad Prism 7 software.
The antiproliferative activity of the compounds against KG-1 cells is shown in Table 2, where A represents IC50≤30 nM, B represents 30<IC50≤300 nM, and C represents IC50>300 nM.

T1 sequence (P15170 whole entry): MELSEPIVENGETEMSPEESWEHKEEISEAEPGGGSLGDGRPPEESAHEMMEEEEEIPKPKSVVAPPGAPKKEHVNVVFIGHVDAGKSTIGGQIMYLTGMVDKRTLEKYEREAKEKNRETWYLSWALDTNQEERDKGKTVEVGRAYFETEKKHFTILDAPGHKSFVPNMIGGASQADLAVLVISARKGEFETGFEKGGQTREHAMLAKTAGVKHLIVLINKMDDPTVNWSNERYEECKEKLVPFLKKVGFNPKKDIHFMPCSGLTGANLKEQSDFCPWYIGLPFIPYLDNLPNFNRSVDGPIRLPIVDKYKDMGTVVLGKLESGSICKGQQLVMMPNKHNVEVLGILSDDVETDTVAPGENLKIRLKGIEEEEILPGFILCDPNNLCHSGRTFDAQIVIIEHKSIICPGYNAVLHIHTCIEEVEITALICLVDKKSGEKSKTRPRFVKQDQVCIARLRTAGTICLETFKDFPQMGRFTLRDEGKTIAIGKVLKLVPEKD
T1 sequence (Q96SW2 whole entry): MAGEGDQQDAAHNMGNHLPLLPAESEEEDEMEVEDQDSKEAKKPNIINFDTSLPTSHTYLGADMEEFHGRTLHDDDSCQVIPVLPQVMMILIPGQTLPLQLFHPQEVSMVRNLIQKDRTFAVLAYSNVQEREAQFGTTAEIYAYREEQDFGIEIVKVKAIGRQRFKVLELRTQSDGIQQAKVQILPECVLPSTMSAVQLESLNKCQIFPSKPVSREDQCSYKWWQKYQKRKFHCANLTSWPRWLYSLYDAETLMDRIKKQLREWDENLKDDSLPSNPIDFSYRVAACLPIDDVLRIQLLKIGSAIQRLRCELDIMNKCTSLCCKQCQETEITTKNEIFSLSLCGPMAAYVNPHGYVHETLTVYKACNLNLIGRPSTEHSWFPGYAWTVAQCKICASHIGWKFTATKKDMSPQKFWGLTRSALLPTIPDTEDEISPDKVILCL
T1 sequence (Q16531 whole entry partner): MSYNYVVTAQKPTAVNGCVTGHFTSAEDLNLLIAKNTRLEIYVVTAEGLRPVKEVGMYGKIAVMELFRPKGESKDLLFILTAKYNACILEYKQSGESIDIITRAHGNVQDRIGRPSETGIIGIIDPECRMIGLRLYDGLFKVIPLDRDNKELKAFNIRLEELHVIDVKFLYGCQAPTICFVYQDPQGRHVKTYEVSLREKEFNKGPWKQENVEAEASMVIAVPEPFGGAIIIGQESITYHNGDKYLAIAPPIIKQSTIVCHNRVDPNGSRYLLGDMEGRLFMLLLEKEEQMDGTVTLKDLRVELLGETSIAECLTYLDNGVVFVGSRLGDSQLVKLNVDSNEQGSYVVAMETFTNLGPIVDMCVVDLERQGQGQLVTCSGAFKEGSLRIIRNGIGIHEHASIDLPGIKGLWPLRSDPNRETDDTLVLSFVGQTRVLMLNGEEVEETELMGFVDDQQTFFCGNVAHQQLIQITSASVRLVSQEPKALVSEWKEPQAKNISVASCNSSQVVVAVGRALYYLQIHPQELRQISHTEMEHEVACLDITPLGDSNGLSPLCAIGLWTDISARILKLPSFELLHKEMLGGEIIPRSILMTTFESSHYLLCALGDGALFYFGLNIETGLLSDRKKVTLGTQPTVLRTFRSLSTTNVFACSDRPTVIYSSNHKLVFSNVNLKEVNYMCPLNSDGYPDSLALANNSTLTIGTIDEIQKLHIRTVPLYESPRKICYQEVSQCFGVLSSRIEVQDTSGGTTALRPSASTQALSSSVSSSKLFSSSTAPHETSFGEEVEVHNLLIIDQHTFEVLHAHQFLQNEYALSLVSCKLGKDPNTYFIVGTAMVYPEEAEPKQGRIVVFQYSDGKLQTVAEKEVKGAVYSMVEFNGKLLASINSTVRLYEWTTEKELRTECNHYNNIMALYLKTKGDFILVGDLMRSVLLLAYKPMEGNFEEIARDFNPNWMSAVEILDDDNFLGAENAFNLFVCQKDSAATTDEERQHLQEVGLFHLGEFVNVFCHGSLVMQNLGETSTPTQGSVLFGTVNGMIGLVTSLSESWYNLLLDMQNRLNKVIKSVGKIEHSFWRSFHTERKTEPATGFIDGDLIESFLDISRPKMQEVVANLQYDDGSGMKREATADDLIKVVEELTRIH

SMILES | inhibition at 0.2 µM (GSPT1 protein) [%] | IC50 (KG-1 cells) [nM]
O=C1CCC(n2ncc3cc(CNC(=O)C4=Cc5ccccc5OC4)ccc3c2=O)C(=O)N1 (stereo not drawn) [Compound T-1, N-((2-(2,6-Dioxopiperidin-3-yl)-1-oxo-1,2-dihydrophthalazin-6-yl)methyl)-2H-chromene-3-carboxamide] | 30 to 70 | 30 to 300
O=C1CCC(n2ncc3cc(CNC(=O)C4=Cc5c(F)cccc5OC4)ccc3c2=O)C(=O)N1 (stereo not drawn) [Compound T-2, N-((2-(2,6-Dioxopiperidin-3-yl)-1-oxo-1,2-dihydrophthalazin-6-yl)methyl)-5-fluoro-2H-chromene-3-carboxamide] | ≥ 70 | ≤ 30
O=C1CCC(n2ncc3cc(CNC(=O)C4=Cc5cc(F)ccc5OC4)ccc3c2=O)C(=O)N1 (stereo not drawn) [Compound T-3, N-((2-(2,6-Dioxopiperidin-3-yl)-1-oxo-1,2-dihydrophthalazin-6-yl)methyl)-6-fluoro-2H-chromene-3-carboxamide] | 30 to 70 | 30 to 300
O=C1CCC(n2ncc3cc(CNC(=O)C4=Cc5ccc(F)cc5OC4)ccc3c2=O)C(=O)N1 (stereo not drawn) [Compound T-4, N-((2-(2,6-Dioxopiperidin-3-yl)-1-oxo-1,2-dihydrophthalazin-6-yl)methyl)-7-fluoro-2H-chromene-3-carboxamide] | 30 to 70 | 30 to 300
O=C1CCC(n2ncc3cc(CNC(=O)C4=Cc5cccc(F)c5OC4)ccc3c2=O)C(=O)N1 (stereo not drawn) [Compound T-5, N-((2-(2,6-Dioxopiperidin-3-yl)-1-oxo-1,2-dihydrophthalazin-6-yl)methyl)-8-fluoro-2H-chromene-3-carboxamide] | 30 to 70 | ≤ 30
COc1cccc2c1OCC(C(=O)NCc1ccc3c(=O)n(C4CCC(=O)NC4=O)ncc3c1)=C2 (stereo not drawn) [Compound T-6, N-((2-(2,6-Dioxopiperidin-3-yl)-1-oxo-1,2-dihydrophthalazin-6-yl)methyl)-8-methoxy-2H-chromene-3-carboxamide] | 30 to 70 | 30 to 300
COc1cccc2c1C=C(C(=O)NCc1ccc3c(=O)n(C4CCC(=O)NC4=O)ncc3c1)CO2 (stereo not drawn) [Compound T-7, N-((2-(2,6-Dioxopiperidin-3-yl)-1-oxo-1,2-dihydrophthalazin-6-yl)methyl)-5-methoxy-2H-chromene-3-carboxamide] | ≥ 70 | ≤ 30
COc1ccc2c(c1)C=C(C(=O)NCc1ccc3c(=O)n(C4CCC(=O)NC4=O)ncc3c1)CO2 (stereo not drawn) [Compound T-8, N-((2-(2,6-Dioxopiperidin-3-yl)-1-oxo-1,2-dihydrophthalazin-6-yl)methyl)-6-methoxy-2H-chromene-3-carboxamide] | 30 to 70 | 30 to 300
O=C1CCC(n2ncc3cc(CNC(=O)C4=Cc5cccc(OC(F)(F)F)c5OC4)ccc3c2=O)C(=O)N1 (stereo not drawn) [Compound T-9, N-((2-(2,6-Dioxopiperidin-3-yl)-1-oxo-1,2-dihydrophthalazin-6-yl)methyl)-8-(trifluoromethoxy)-2H-chromene-3-carboxamide] | 30 to 70 | ≤ 30
O=C1CCC(n2ncc3cc(CNC(=O)C4=Cc5cc(OC(F)(F)F)ccc5OC4)ccc3c2=O)C(=O)N1 (stereo not drawn) [Compound T-10, N-((2-(2,6-Dioxopiperidin-3-yl)-1-oxo-1,2-dihydrophthalazin-6-yl)methyl)-6-(trifluoromethoxy)-2H-chromene-3-carboxamide] | ≥ 70 | ≤ 30
Cc1cccc2c1OCC(C(=O)NCc1ccc3c(=O)n(C4CCC(=O)NC4=O)ncc3c1)=C2 (stereo not drawn) [Compound T-11, N-((2-(2,6-Dioxopiperidin-3-yl)-1-oxo-1,2-dihydrophthalazin-6-yl)methyl)-8-methyl-2H-chromene-3-carboxamide] | 30 to 70 | 30 to 300
Cc1ccc2c(c1)C=C(C(=O)NCc1ccc3c(=O)n(C4CCC(=O)NC4=O)ncc3c1)CO2 (stereo not drawn) [Compound T-12, N-((2-(2,6-Dioxopiperidin-3-yl)-1-oxo-1,2-dihydrophthalazin-6-yl)methyl)-6-methyl-2H-chromene-3-carboxamide] | 30 to 70 | 30 to 300
O=C1CCC(n2ncc3cc(CNC(=O)C4=Cc5cc(Cl)ccc5OC4)ccc3c2=O)C(=O)N1 (stereo not drawn) [Compound T-13, 6-Chloro-N-((2-(2,6-dioxopiperidin-3-yl)-1-oxo-1,2-dihydrophthalazin-6-yl)methyl)-2H-chromene-3-carboxamide] | 30 to 70 | 30 to 300
O=C1CCC(n2ncc3cc(CNC(=O)C4=Cc5cc(Br)ccc5OC4)ccc3c2=O)C(=O)N1 (stereo not drawn) [Compound T-14, 6-Bromo-N-((2-(2,6-dioxopiperidin-3-yl)-1-oxo-1,2-dihydrophthalazin-6-yl)methyl)-2H-chromene-3-carboxamide] | 30 to 70 | 30 to 300
O=C1CCC(n2ncc3cc(CNC(=O)C4=Cc5c(cccc5C(F)(F)F)OC4)ccc3c2=O)C(=O)N1 (stereo not drawn) [Compound T-15, N-((2-(2,6-Dioxopiperidin-3-yl)-1-oxo-1,2-dihydrophthalazin-6-yl)methyl)-5-(trifluoromethyl)-2H-chromene-3-carboxamide] | ≥ 70 | ≤ 30
C=Cc1ccc2c(c1)C=C(C(=O)NCc1ccc3c(=O)n(C4CCC(=O)NC4=O)ncc3c1)CO2 (stereo not drawn) [Compound T-16, N-((2-(2,6-Dioxopiperidin-3-yl)-1-oxo-1,2-dihydrophthalazin-6-yl)methyl)-6-vinyl-2H-chromene-3-carboxamide] | < 30 | > 300
CC(C)(C)c1ccc2c(c1)C=C(C(=O)NCc1ccc3c(=O)n(C4CCC(=O)NC4=O)ncc3c1)CO2 (stereo not drawn) [Compound T-17, 6-(tert-Butyl)-N-((2-(2,6-dioxopiperidin-3-yl)-1-oxo-1,2-dihydrophthalazin-6-yl)methyl)-2H-chromene-3-carboxamide] | ≥ 70 | ≤ 30
O=C1CCC(n2ncc3cc(CNC(=O)C4=Cc5cc(-c6ccccc6)ccc5OC4)ccc3c2=O)C(=O)N1 (stereo not drawn) [Compound T-18, N-((2-(2,6-Dioxopiperidin-3-yl)-1-oxo-1,2-dihydrophthalazin-6-yl)methyl)-6-phenyl-2H-chromene-3-carboxamide] | ≥ 70 | ≤ 30
O=C1CCC(n2ncc3cc(CNC(=O)C4=Cc5cc(F)cc(F)c5OC4)ccc3c2=O)C(=O)N1 (stereo not drawn) [Compound T-19, N-((2-(2,6-Dioxopiperidin-3-yl)-1-oxo-1,2-dihydrophthalazin-6-yl)methyl)-6,8-difluoro-2H-chromene-3-carboxamide] | 30 to 70 | 30 to 300
Cc1cc2c(cc1Cl)C=C(C(=O)NCc1ccc3c(=O)n(C4CCC(=O)NC4=O)ncc3c1)CO2 (stereo not drawn) [Compound T-20, 6-Chloro-N-((2-(2,6-dioxopiperidin-3-yl)-1-oxo-1,2-dihydrophthalazin-6-yl)methyl)-7-methyl-2H-chromene-3-carboxamide] | 30 to 70 | 30 to 300
O=C1CCC(n2ncc3cc(CNC(=O)C4COc5ccccc5C4)ccc3c2=O)C(=O)N1 (stereo not drawn) [Compound T-21, N-((2-(2,6-Dioxopiperidin-3-yl)-1-oxo-1,2-dihydrophthalazin-6-yl)methyl) chromane-3-carboxamide] | 30 to 70 | 30 to 300
O=C1CCC(n2ncc3cc(CNC(=O)C4COc5ccc(F)cc5C4)ccc3c2=O)C(=O)N1 (stereo not drawn) [Compound T-22, N-((2-(2,6-Dioxopiperidin-3-yl)-1-oxo-1,2-dihydrophthalazin-6-yl)methyl)-6-fluorochromane-3-carboxamide] | 30 to 70 | ≤ 30
O=C1CCC(n2ncc3cc(CNC(=O)C4COc5ccc(OC(F)(F)F)cc5C4)ccc3c2=O)C(=O)N1 (stereo not drawn) [Compound T-23, N-((2-(2,6-Dioxopiperidin-3-yl)-1-oxo-1,2-dihydrophthalazin-6-yl)methyl)-6-(trifluoromethoxy) chromane-3-carboxamide] | ≥ 70 | ≤ 30
O=C1CCC(n2ncc3cc(CNC(=O)C4CNc5ccccc5C4)ccc3c2=O)C(=O)N1 (stereo not drawn) [Compound T-24, N-((2-(2,6-Dioxopiperidin-3-yl)-1-oxo-1,2-dihydrophthalazin-6-yl)methyl)-1,2,3,4-tetrahydroquinoline-3-carboxamide] | ≥ 70 | 30 to 300
